# Experimental data from patent publication US20250041272A1, “COMPOSITIONS AND METHODS FOR TREATING CANCER VIA PTP1B INHIBITION” (priority 2021, published 2025).
# Legend:
# [1] = tested on: Stat1 phosphorylation and MyD88 in macrophages; assay: Transwell co-culture of M1 induced macrophages with tumor cells plus inhibitors (Western blot, qRT-PCR); type: cell-based, mouse; conditions: 24 hours
# Description: Peritoneal macrophage isolation and culture. Peritoneal macrophages were done as described previously(65) from 8-week-old C57BL/6J mice (randomized, both male and female). PBS (Gibco) was injected in the mural peritoneal cavity to release the macrophages. After recovering, cells were centrifuged at 1200 rpm for 5 minutes, resuspended in DMEM high glucose, 10% FBS, 1% penicillin-streptomycin (Gibco) and plated. 2 hours after the last step, cells were washed with PBS and maintained in DMEM/F12 supplemented with 10% FBS, 1% penicillin-streptomycin and 20 ng/ml of M-CSF (Prospec) for 2 days. Macrophages were treated for 24 hours with 50 ng/ml LPS (Sigma Millipore), 100 ng/ml IFNγ (BioLegend), 300 ng/ml PAM3CSK4 (InvivoGen), 107 cells/ml heat killed Listeria Monocytogenes (HKLM) (InvivoGen), 100 ng/ml Flagellin Salmonella typhimurium standard (InvivoGen), 10 ng/ml FSL1 (InvivoGen), 2.5 ug/ml ssRNA40 (InvivoGen), 2.5 ug/ml CL 075 (Tocris), 5 μM ODN1826, 50 μM Fludarabine (SelleckChem), 50 nM Momelotinib (SelleckChem), 5 μM BVT948 (Sigma Millipore), 200 μM PTP1b inhibitor III (Santa Cruz Biotechnology Inc.), 5 μM NSC87877 (Santa Cruz Biotechnology Inc.), 50 μM PTP1b inhibitor (Cayman), 1 mM PTP Inhibitor IV (Santa Cruz Biotechnology Inc.), 1 μM TSC401, 300 nM UNC2371 (SelleckChem), 300 nM BMS777607 (SelleckChem), 300 nM LDC1267 (SelleckChem) 1.5 μg/ml recombinant Pros1 (R&D systems), 200 ng/ml recombinant Gas6 (R&D systems) or 10-500 μM Cisplatin (Tocris). All components were added as described in the text. Cell culture. B16F10 (CRL-6475, ATCC), Lewis lung carcinoma (LLC) (CRL-1642, ATCC), KPC2713 (Yuliya Pylayeva-Gupta laboratory, UNC) and MDA-MB-231 (HTB-26, ATCC) were cultured in DMEM high glucose supplemented with 10% FBS, 1% penicillin-streptomycin (Gibco). […]
# [2] = biological target: T1, ternary complex of PTP1b with Mer and Stat1 (Mus musculus, UniProt P35821); assay: Co-immunoprecipitation of PTP1b or Stat1 from macrophages co-cultured with B16F10 cells; type: cell-based
# T1 construct: endogenous in cells; host or cells: Primary peritoneal macrophages from C57BL/6J mice, stimulated with IFNγ and LPS and co-cultured with B16F10 melanoma cells
# T1 sequence (P35821 1-432): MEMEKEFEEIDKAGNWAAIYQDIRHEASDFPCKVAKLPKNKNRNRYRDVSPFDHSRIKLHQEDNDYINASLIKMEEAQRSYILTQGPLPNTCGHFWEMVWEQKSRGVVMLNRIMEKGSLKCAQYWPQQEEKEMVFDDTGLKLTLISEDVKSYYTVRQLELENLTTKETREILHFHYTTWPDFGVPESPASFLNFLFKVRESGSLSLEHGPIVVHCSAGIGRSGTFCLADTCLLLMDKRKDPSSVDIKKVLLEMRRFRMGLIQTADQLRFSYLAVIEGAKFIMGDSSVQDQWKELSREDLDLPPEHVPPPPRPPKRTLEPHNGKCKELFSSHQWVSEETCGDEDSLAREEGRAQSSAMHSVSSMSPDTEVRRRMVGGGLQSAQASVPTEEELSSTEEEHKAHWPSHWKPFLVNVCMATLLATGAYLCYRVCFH
# Description: Coimmunoprecipitation and Western blot. Coimmunoprecipitation was performed using […] A/G agarose beads (Santa Cruz Biotechnology Inc.) and antibodies for PTP1b (Abcam) or STAT1 (Cell signaling). Samples were incubated for 3 days at 4° C. under rotation and washed three times with RIPA buffer before loading them in 10% Mini-PROTEAN TGX stain-free gels (Biorad). After running the electrophoresis in the Mini-PROTEAN Tetra System (Bio-Rad) proteins were transferred to a 0.2-μm nitrocellulose Trans-Blot Mini Turbo Transfer Pack (Bio-Rad) using a Trans-Blot Turbo Transfer System (Bio-Rad). Membranes were blocked with 5% BSA (Fisher scientific) for 1 hour and blotted with antibodies against MyD88 (Cell Signaling), total STAT1 (Cell Signaling), tyrosine 701 phosphorylated STAT1 (Cell signaling), serine 727 phosphorylated STAT1 (Cell signaling), PTP1 b (Abcam) and Mer (Thermo Fisher scientific). Detection was performed with the ECL HPR-linked anti-rabbit antibody (Cell signaling) and the Clarity-Max Western ECL substrate (Bio-Rad). Blots were imaging with ChemiDoc MP Imaging System (Bio-Rad) and quantitated using ImageJ software (NIH).
# [3] = co-immunoprecipitation of Stat1, 24 hours
substance,measurement,setting,value
BVT948,Stat1 phosphorylation at Tyrosine 701 and Serine 727,[1],increased
same,association of PTP1b with Mer and Stat1,"[2]; co-immunoprecipitation of PTP1b, in the presence of B16F10 cells",reduced the association
same,Stat1 S727 phosphorylation,[2]; [3],restoration of Stat1 S727 phosphorylation
same,ternary complex formation,[2]; [3],reduced ternary complex formation
